# Source: US11576894B2, “Combination therapy for the treatment of diabetes” (Janssen Pharmaceutica N.V., priority 2009, dated 2023)
# Where a name gives a salt, the structure may show the parent alone.
# Columns and labels:
# [1] = system: Male C57BL/6 mice (high fat diet, Steptozotocin); experiment: In vivo mouse study: high fat diet / STZ C57BL/6 mice, 3 weeks oral treatment, fed and fasted glucose, OGTT; settings: for Fed Glucose / Fed Glucose (% relative to the Vehicle): 3 weeks; for Blood Glucose AUC during OGTT / Blood Glucose AUC during OGTT (% relative to the Vehicle): glucose 2 g/kg; for Fasted Glucose / Fasted Glucose (% relative to the Vehicle): overnight fast from day 18
# Source text: All the mice were then kept on a high fat diet for another 3 weeks. […] At the start of the pre-dose period, each mouse was assigned a predose number, which was indicated on its cage card. After assignment to dosage groups, each mouse was assigned a unique study identification number (which will be indicated on its cage card) and identified by permanent marker on its tail. Mice were housed 5 mice per cage in stainless steel cages. […] The temperature and humidity ranges will be monitored by a hygrothermograph. Mice were fed ad libitum (except where noted) with high-fat diet prepared in Southern University. Water was provided ad libitum by water bottles. The quarantine period was 5 days. The test compound or vehicle was administered orally by gavage. The dosage levels were chosen to represent a range of exposures with pharmacology effects. […] The mice were randomly divided into six testing group of 10 mice per group. Each group was treated for 3 weeks, via oral administration, with one of the following regimens: (a) vehicle; […] On Day 1 (the first day of dosing), dosing at all dose levels was initiated. All groups were then dosed for 20 additional days. The following pharmacological parameters were measured during and at the end of this study: […] The following morning, a basal fasted blood glucose level was determined. […] Food was replaced after the last time point of blood glucose measurement. The pharmacological significance of any findings was determined based on statistical analysis and historical control data. Statistical analyses were performed utilizing GraphPadPRISM.
# Male ob/ob mice = experiment: In vivo ob/ob mouse study: 22 days oral q.d., glucose, OGTT, plasma insulin, body weight; settings: for Body Weight / Fed Glucose / Plasma Insulin: 22 days; for Blood Glucose AUC during OGTT: OGTT day 18, glucose 0.5 g/kg
# Method: The mice were allowed ad libitum access to water and chow (commercially supplied diet). […] On the first morning, the mice were grouped as noted above and fed glucose. […] Body weight, food intake and fed blood glucose levels were measured weekly. An oral glucose tolerance test (OGTT) was conducted on the mice on day 18, after overnight fasting. […] Following completion of the study, final body weight and blood glucose level of were collected and the mice in each group was sacrificed to collect blood for biochemistry analysis, including fed blood glucose levels, fasted blood glucose levels, blood glucose levels during OGTT, plasma insulin and body weight change.
# [2] = Metformin HCl 250 mg/kg P.O. q.d.
compound,measurement,setting,value
OC[C@H]1O[C@@H](c2ccc(Cl)c(Cc3ccc(-c4ccc(F)nc4)s3)c2)[C@H](O)[C@@H](O)[C@@H]1O [Cmpd (I-Y)],Fed Glucose,[1]; Cmpd (I-Y) 1 mg/kg oral,360.7 ± 15.7 mg/dL
same,Fed Glucose (% relative to the Vehicle),[1]; Cmpd (I-Y) 1 mg/kg oral,86% ± 4%
same,Blood Glucose AUC during OGTT,[1]; Cmpd (I-Y) 1 mg/kg oral,31562 ± 1447 mg/dL * 2 h
same,Blood Glucose AUC during OGTT (% relative to the Vehicle),[1]; Cmpd (I-Y) 1 mg/kg oral,85% ± 4%
same,Fasted Glucose,[1]; Cmpd (I-Y) 1 mg/kg oral,77.8 ± 4.9 mg/dL
same,Fasted Glucose (% relative to the Vehicle),[1]; Cmpd (I-Y) 1 mg/kg oral,89.4% ± 5.7%
same,Fed Glucose,[1]; Cmpd (I-Y) 10 mg/kg oral,290.5 ± 24.8 mg/dL
same,Fed Glucose (% relative to the Vehicle),[1]; Cmpd (I-Y) 10 mg/kg oral,69% ± 6%
same,Blood Glucose AUC during OGTT,[1]; Cmpd (I-Y) 10 mg/kg oral,25209 ± 894 mg/dL * 2 h
same,Blood Glucose AUC during OGTT (% relative to the Vehicle),[1]; Cmpd (I-Y) 10 mg/kg oral,68% ± 2%
same,Fasted Glucose,[1]; Cmpd (I-Y) 10 mg/kg oral,66.9 ± 3.1 mg/dL
same,Fasted Glucose (% relative to the Vehicle),[1]; Cmpd (I-Y) 10 mg/kg oral,76.9% ± 3.6%
"CN(C)C(=N)N=C(N)N [Metformin HCl, metformin hydrochloride, reference compound]",Fasted Glucose,Male ob/ob mice; [2],166 ± 16 mg/dL
same,Body Weight,Male ob/ob mice; [2],52 ± 0.9 g
same,Fed Glucose,Male ob/ob mice; [2],371 ± 35 mg/dL
same,Plasma Insulin,Male ob/ob mice; [2],48.4 ± 2.0 ng/dL
same,Blood Glucose AUC during OGTT,Male ob/ob mice; [2],91 ± 9 mg/dL * 2 h
Cc1ccc([C@@H]2O[C@H](CO)[C@@H](O)[C@H](O)[C@H]2O)cc1Cc1ccc(-c2ccc(F)cc2)s1 [Cmpd (I-X)],blood glucose levels (result in words),Male ob/ob mice; 10 mg/kg,significantly reduced
same,glucose excursion during OGTT (result in words),Male ob/ob mice; 10 mg/kg,improved
same,Fasted Glucose,Male ob/ob mice; Cmpd (I-X) 1 mg/kg P.O. q.d.,159 ± 12 mg/dL
same,Body Weight,Male ob/ob mice; Cmpd (I-X) 1 mg/kg P.O. q.d.,53 ± 0.8 g
same,Fed Glucose,Male ob/ob mice; Cmpd (I-X) 1 mg/kg P.O. q.d.,312 ± 34 mg/dL
same,Plasma Insulin,Male ob/ob mice; Cmpd (I-X) 1 mg/kg P.O. q.d.,46.3 ± 3.5 ng/dL
same,Blood Glucose AUC during OGTT,Male ob/ob mice; Cmpd (I-X) 1 mg/kg P.O. q.d.,80 ± 4 mg/dL * 2 h
same,Fasted Glucose,Male ob/ob mice; Cmpd (I-X) 10 mg/kg P.O. q.d.,86 ± 4 mg/dL
same,Body Weight,Male ob/ob mice; Cmpd (I-X) 10 mg/kg P.O. q.d.,54 ± 0.8 g
same,Fed Glucose,Male ob/ob mice; Cmpd (I-X) 10 mg/kg P.O. q.d.,254 ± 22 mg/dL
same,Plasma Insulin,Male ob/ob mice; Cmpd (I-X) 10 mg/kg P.O. q.d.,44.0 ± 3.6 ng/dL
same,Blood Glucose AUC during OGTT,Male ob/ob mice; Cmpd (I-X) 10 mg/kg P.O. q.d.,48 ± 3 mg/dL * 2 h
"CN(C)C(=N)N=C(N)N [Metformin, reference compound]",Fed Glucose,[1]; Metformin 500 mg/kg oral,345.4 ± 28.4 mg/dL
same,Fed Glucose (% relative to the Vehicle),[1]; Metformin 500 mg/kg oral,82% ± 7%
same,Blood Glucose AUC during OGTT,[1]; Metformin 500 mg/kg oral,34023 ± 1618 mg/dL * 2 h
same,Blood Glucose AUC during OGTT (% relative to the Vehicle),[1]; Metformin 500 mg/kg oral,92% ± 4%
same,Fasted Glucose,[1]; Metformin 500 mg/kg oral,74.7 ± 3.8 mg/dL
same,Fasted Glucose (% relative to the Vehicle),[1]; Metformin 500 mg/kg oral,85.9% ± 4.4%
same,effect on blood glucose control (result in words),Male ob/ob mice; 250 mg/kg,did not have an effect
